In ChEMBL document CHEMBL1141367, “Substituted 2-[(4-aminomethyl)phenoxy]-2-methylpropionic acid PPARalpha agonists. 1. Discovery of a novel series of potent HDLc raising agents” (J Med Chem, 2007):

Assays:
[1] = target: T1, Peroxisome proliferator-activated receptor alpha (Homo sapiens) (UniProt Q07869); assay: Agonist potency at PPARalpha expressed in CV1 cells relative to GW-590735; type: functional, cell-based; settings: CV-1
T1 sequence (whole entry): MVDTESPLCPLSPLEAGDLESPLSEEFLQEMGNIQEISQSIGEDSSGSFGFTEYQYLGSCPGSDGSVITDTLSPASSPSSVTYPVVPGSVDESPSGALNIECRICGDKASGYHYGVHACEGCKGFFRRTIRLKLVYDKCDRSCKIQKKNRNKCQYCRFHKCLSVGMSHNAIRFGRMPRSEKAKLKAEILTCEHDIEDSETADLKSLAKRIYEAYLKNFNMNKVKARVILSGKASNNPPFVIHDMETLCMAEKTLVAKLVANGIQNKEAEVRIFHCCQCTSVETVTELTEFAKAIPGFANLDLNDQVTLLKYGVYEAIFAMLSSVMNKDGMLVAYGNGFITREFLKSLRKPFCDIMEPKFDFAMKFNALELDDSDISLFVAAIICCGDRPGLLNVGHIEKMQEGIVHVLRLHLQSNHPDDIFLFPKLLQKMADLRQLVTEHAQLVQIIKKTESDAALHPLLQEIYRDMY

[2] = target: T2, Peroxisome proliferator-activated receptor gamma (Homo sapiens, UniProt P37231); type: functional, cell-based, CV-1
T2 sequence (P37231 whole entry): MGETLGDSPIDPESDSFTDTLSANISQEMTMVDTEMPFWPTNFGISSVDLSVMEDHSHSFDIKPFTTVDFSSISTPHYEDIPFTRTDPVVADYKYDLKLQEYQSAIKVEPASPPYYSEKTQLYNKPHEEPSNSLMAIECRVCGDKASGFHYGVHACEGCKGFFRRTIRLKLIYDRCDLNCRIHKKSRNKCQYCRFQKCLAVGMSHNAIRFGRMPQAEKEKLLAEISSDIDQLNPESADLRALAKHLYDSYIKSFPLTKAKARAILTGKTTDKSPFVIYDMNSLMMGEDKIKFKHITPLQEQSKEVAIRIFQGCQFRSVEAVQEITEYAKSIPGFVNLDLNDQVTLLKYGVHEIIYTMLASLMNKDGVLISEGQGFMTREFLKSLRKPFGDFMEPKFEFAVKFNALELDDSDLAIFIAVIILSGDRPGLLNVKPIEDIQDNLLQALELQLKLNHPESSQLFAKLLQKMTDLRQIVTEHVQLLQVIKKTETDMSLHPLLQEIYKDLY
Description: Agonist potency at PPARgamma in CV1 cells by cell based transient transfection assay

[3] = target: T3, Peroxisome proliferator-activated receptor alpha (Homo sapiens, UniProt Q07869)
T3 sequence (Q07869 whole entry): T1 sequence (whole entry)
Description: Agonist potency at PPARalpha in CV1 cells by cell based transient transfection assay

[4] = target: T4, Peroxisome proliferator-activated receptor delta (Homo sapiens, UniProt Q03181)
T4 sequence (Q03181 whole entry): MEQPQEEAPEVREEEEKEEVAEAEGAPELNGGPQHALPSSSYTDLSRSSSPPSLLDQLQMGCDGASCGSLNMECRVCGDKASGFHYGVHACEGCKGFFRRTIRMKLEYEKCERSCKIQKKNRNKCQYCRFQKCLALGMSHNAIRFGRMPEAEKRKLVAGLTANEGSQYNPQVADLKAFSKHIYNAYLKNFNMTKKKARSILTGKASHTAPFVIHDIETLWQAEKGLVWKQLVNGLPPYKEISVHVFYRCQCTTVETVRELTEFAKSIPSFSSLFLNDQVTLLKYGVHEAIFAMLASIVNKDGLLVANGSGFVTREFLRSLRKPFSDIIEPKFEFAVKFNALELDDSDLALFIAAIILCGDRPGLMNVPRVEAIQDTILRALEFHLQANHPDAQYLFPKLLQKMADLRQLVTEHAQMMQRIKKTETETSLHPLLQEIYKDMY
Description: Agonist potency at PPARdelta in CV1 cells by cell based transient transfection assay

Mus musculus [5] = assay: Decrease in plasma TG level in human Apo-A-I transgenic C57BL/6 mouse at 50 mg/kg; type: functional; design: scale not given: the % may be the effect or the level left
Mus musculus [6] = assay: Decrease in plasma VLDL level in human Apo-A-I transgenic C57BL/6 mouse at 50 mg/kg; type: functional; design: scale not given: the % may be the effect or the level left
Mus musculus [7] = assay: Decrease in LDL cholesterol level in human Apo-A-I transgenic C57BL/6 mouse at 50 mg/kg; type: functional; design: scale not given: the % may be the effect or the level left
Mus musculus [8] = assay: Increase in HDL cholesterol level in human Apo-A-I transgenic C57BL/6 mouse at 50 mg/kg; type: functional

## Cc1nc(-c2ccc([N+](=O)[O-])cc2)sc1C(=O)NCc1ccc(OC(C)(C)C(=O)O)cc1
[1]
  Activity: 111%
[2]
  EC50: > 10 µM
[3]
  EC50: 0.03 µM
[4]
  EC50: > 10 µM

## Cc1nc(-c2ccc(C(F)(F)F)cc2)sc1C(=O)NCCc1ccc(OC(C)(C)C(=O)O)cc1
[1]
  Activity: 129%
[2]
  EC50: > 10 µM
[3]
  EC50: 0.11 µM
[4]
  EC50: > 10 µM

## Cc1nc(-c2ccc(C(C)(C)C)cc2)sc1C(=O)NCc1ccc(OC(C)(C)C(=O)O)cc1
[1]
  Activity: 66%
[2]
  EC50: 0.86 µM
[4]
  EC50: > 10 µM

## Cc1nc(-c2ccccc2C(F)(F)F)sc1C(=O)NCc1ccc(OC(C)(C)C(=O)O)cc1
[1]
  Activity: 82%
[2]
  EC50: > 25 µM
[3]
  EC50: 0.465 µM
[4]
  EC50: 0.808 µM

## Cc1nc(-c2ccc(F)cc2)sc1C(=O)NCc1ccc(OC(C)(C)C(=O)O)cc1
[1]
  Activity: 118%
[2]
  EC50: > 10 µM
[3]
  EC50: 0.04 µM
[4]
  EC50: > 10 µM

## Cc1nc(-c2ccc(C(F)(F)F)cc2)sc1C(=O)Nc1ccc(OC(C)(C)C(=O)O)cc1
[1]
  Activity: 69%
[2]
  EC50: > 10 µM
[3]
  EC50: 9.5 µM
[4]
  EC50: > 10 µM

## Cc1nc(-c2ccc(C(F)(F)F)cc2)sc1CNCc1ccc(OC(C)(C)C(=O)O)cc1
[1]
  Activity: 110%
[2]
  EC50: > 10 µM
[3]
  EC50: 0.07 µM
[4]
  EC50: 4.05 µM

## Cc1nc(-c2ccc(C(F)(F)F)cc2)sc1CNC(=O)c1ccc(OC(C)(C)C(=O)O)cc1
[1]
  Activity: 109%
[2]
  EC50: > 10 µM
[3]
  EC50: 1.32 µM
[4]
  EC50: 6.26 µM

## Cc1nc(-c2ccc(C(F)(F)F)cc2)sc1C(=O)N(C)Cc1ccc(OC(C)(C)C(=O)O)cc1
[1]
  Activity: 84%
[2]
  EC50: > 10 µM
[3]
  EC50: 0.24 µM
[4]
  EC50: > 10 µM

## Cc1nc(-c2ccc(Cl)cc2)sc1C(=O)NCc1ccc(OC(C)(C)C(=O)O)cc1
[1]
  Activity: 94%
[2]
  EC50: > 10 µM
[3]
  EC50: 0.01 µM

## Cc1cc(CCc2sc(-c3ccc(C(F)(F)F)cc3)nc2C)ccc1OCC(=O)O
[1]
  Activity: 85%
[2]
  EC50: 10 µM
[3]
  EC50: 2 µM
[4]
  EC50: 0.004 µM

## CC(C)(Oc1ccc(CNC(=O)c2sc(-c3ccc(C(F)(F)F)cc3)nc2C(F)(F)F)cc1)C(=O)O
[1]
  Activity: 98%
[2]
  EC50: 0.73 µM
[3]
  EC50: 0.004 µM
[4]
  EC50: 8.24 µM

## Cc1nc(C(=O)NCc2ccc(OC(C)(C)C(=O)O)cc2)c(C)s1
[1]
  Activity: 171%
[2]
  EC50: > 10 µM
[3]
  EC50: 1.89 µM
[4]
  EC50: 0.66 µM

## Cc1nc(-c2ccc(OS(C)(=O)=O)cc2)sc1C(=O)NCc1ccc(OC(C)(C)C(=O)O)cc1
[2]
  EC50: > 10 µM
[3]
  EC50: > 10 µM
[4]
  EC50: > 10 µM

## Cc1nc(-c2ccc(O)cc2)sc1C(=O)NCc1ccc(OC(C)(C)C(=O)O)cc1
[2]
  EC50: > 10 µM
[3]
  EC50: > 10 µM
[4]
  EC50: > 10 µM

## Cc1cc(SCc2sc(-c3ccc(C(F)(F)F)cc3)nc2C)ccc1OCC(=O)O
[1]
  Activity: 108%

## Cc1nc(-c2cccc(C(F)(F)F)c2)sc1C(=O)NCc1ccc(OC(C)(C)C(=O)O)cc1
[1]
  Activity: 106%
[2]
  EC50: > 25 µM
[3]
  EC50: 0.004 µM
[4]
  EC50: > 25 µM

## CC(C)OC(=O)C(C)(C)Oc1ccc(C(=O)c2ccc(Cl)cc2)cc1 [FENOFIBRATE]
Mus musculus [5]
  Activity: 43%
Mus musculus [6]
  Activity: 64%
Mus musculus [7]
  Activity: 78%
Mus musculus [8]
  Activity: 26%

## Cc1nc(-c2ccc(C(F)(F)F)cc2)sc1CCc1ccc(OC(C)(C)C(=O)O)cc1
[1]
  Activity: 138%
[2]
  EC50: 1.87 µM
[3]
  EC50: 0.21 µM
[4]
  EC50: 0.02 µM

## Cc1nc(-c2ccc(OC(F)(F)F)cc2)sc1C(=O)NCc1ccc(OC(C)(C)C(=O)O)cc1
[1]
  Activity: 116%
[2]
  EC50: > 10 µM

## Cc1nc(-c2ccc(N)cc2)sc1C(=O)NCc1ccc(OC(C)(C)C(=O)O)cc1
[1]
  Activity: 67%
[2]
  EC50: > 10 µM
[3]
  EC50: 5.64 µM
[4]
  EC50: > 10 µM

## COc1ccc(-c2nc(C)c(C(=O)NCc3ccc(OC(C)(C)C(=O)O)cc3)s2)cc1
[1]
  Activity: 103%
[2]
  EC50: > 10 µM
[3]
  EC50: 0.01 µM
[4]
  EC50: > 10 µM
